According to patent US20220362174A1, “Use of R-enantiomer Beta2-agonists for prevent and treatment of pulmonary inflammation and inflammatory remodeling for reduced adverse effects” (priority 2019, published 2022):

Tests used:
OVA induced asthma mice = assay: Combination therapy of ipratropium with RS-, R- and S-salbutamol: airway resistance in response to methacholine; type: in vivo
Method: OVA sensitized/challenged asthma model Mice were sensitized and challenged with ovalbumin (OVA) or normal saline. […] On days 21, 22 and 23, the mice were challenged with 1% OVA in saline (0.01 g/mL) for 20 min via. a nebulizer (PART Turbo boy). […] In vivo airway responsiveness to methacholine (Mch) was assessed on day 28 in conscious, freely moving, spontaneously breathing mice by a whole-body plethysmography (Buxco Electronics Inc.). […] Before Mch challenge, a 20 μL drug aerosol or saline was given to the mice because of the short-acting bronchodilating effect of terbutaline. The degree of bronchoconstriction was expressed as enhanced pause (Penh), a calculated dimensionless value that correlates with measurement of airway resistance, impedance, and intrapleural pressure. […] Methods used were similar as mentioned above. Nebulized aerosol of saline, Methacholine 2 mg/ml (low dose) or 10 mg/ml (high dose) were given via inhalation to OVA induced asthma mice.

BALB/c mice [1] = assay: Survival study after LPS challenge (sepsis); type: in vivo; settings: for Percent of death after LPS challenges, 24 h: Saline + LPS 36.4; for Percent of death after LPS challenges, 36 h: Saline + LPS 72.7; for Percent of death after LPS challenges, 48 h / Percent of death after LPS challenges, 72 h / Percent of death after LPS challenges, 144 h: Saline + LPS 90.9; for Percent of death after LPS challenges, 12 h: Saline + LPS 0; for rate of mortality/death after LPS challenge (in words): in comparison of LPS challenged group without pretreatment (mortality 90.9%)
Method: Treatment were given intraperitoneally for 3 consecutive days. One hour after the 3rd day treatments, LPS (15 mg/kg) was administered intraperitoneally. The animals were monitored. Survival rate was then recorded every 12 h for 144 hours.

RAW264.7 cells = assay: Cell viability, CCK-8 assay; type: cell-based; settings: up to 100 μM, with or without LPS (100 ng/mL)
[2] = test system: LPS-induced RAW264.7 cells; assay: Intracellular ROS (DCFH-DA); type: cell-based
Method: (§1) Macrophages were treated without or with (R)/(S)-salbutamol for 1 h prior to LPS stimulation and subsequently incubated for 12 h. […] The fluorescence of the oxidized product (2′,7′-dichlorofluorescein, DCF) was assessed using an LSM710 Laser Scanning Confocal Microscope (Carl Zeiss, Jena, Germany). The concentration of NO in the culture supernatant was measured by assaying the concentrations of nitrite (a stable NO breakdown product) using the Griess assay (Beyotime, Shanghai, China), according to the manufacturer's instructions. The intracellular NO level was detected using the NO-sensitive fluorescence probe DAF-FM DA (Sigma, St. Louis, Mo., USA) (24). Cells were labeled with DAF-FM DA (10 μM) at 37° C. for 30 min and were gently washed three times with PBS. Fluorescence was detected using a LSM710 Laser Scanning Confocal Microscope (Scale bars, 100 μm) (Carl Zeiss, Jena, Germany).
LPS can promote cell apoptosis through mitochondrial dysfunction, and mitochondria are the major source of ROS.

BALB/c mice [3] = assay: Lung function measurements 6 hours after LPS (Buxco); type: in vivo
Method: Methods: Survival study: […] Treatment were given intraperitoneally for 3 consecutive days. […] The animals were monitored. Survival rate was then recorded every 12 h for 144 hours. The lung functions were measured with using Buxco system (Buxco Electronics, USA). After a brief acclimation to the chamber, the mice received an initial baseline challenge of saline. Measures were made at 6 hours after administration of LPS, including tidal volume and Penh which is an indication of airway resistance.

NF-κB and MARK pathways = assay: NF-κB and MARK pathways, cytokines and ROS in LPS sepsis
Excerpt: LPS interacts with pathogen recognition receptors such as TLRs would also activate NF-κB and MARK pathways, which would further lead to an over-production of cytokines. […] The “cytokine storm” in sepsis involves in excessive release of INFs, IL-1B, IL-2,4,6,10,12, TNFa and MCP etc.
In sepsis, there are also over productions of chemokines such as ROS. […] This invention disclosed the similar effects of other RS-racemic, S-enantiomer or R-enantiomer beta2 agonists including: salbutamol, bambuterol, vilanterol, clenterol, salmeterol, formoterol, trantinterol and Indacaterol and other β2 agonists.

[4] = test system: LPS-induced macrophage RAW264.7 cells; assay: M1 macrophage cytokines (TNF-α, IL-1β, MCP-1) by ELISA; type: cell-based
Method: as §1
To confirm that M1 polarization was predominant over M2 polarization after stimulation with LPS, the levels of typical M1 macrophage cytokines (i.e., TNF-α, IL-1β and MCP-1) were quantified using ELISA; these cytokines are mainly synthesized by macrophages and play an important role in inflammatory diseases (35,36). This invention disclosed that TNF-α […] from 2.62-fold to 0.75-fold of control levels following LPS stimulation (FIG. 8A). IL-1β is a hallmark of many chronic inflammatory diseases in humans and is reportedly associated with acute phase reactions (35,37). […] We conclude that LPS is likely to lead to M1 polarization but not M2 polarization.

[5] = test system: LPS-induced RAW264.7 cells; assay: mRNA expression of TNF-α, IL-1β and MCP-1 by quantitative real-time PCR; type: cell-based; settings: pretreated prior to LPS
Method: as §1
To examine the mRNA expression of TNF-α, IL-1β and MCP-1, quantitative real-time PCR was performed. Consistent with the cytokine expression study, the mRNA expression of TNF-α was increased by 2.26-fold in the LPS-induced group compared to the control group (FIG. 8D). The mRNA expression of IL-1β and MCP-1 increased by 12.74-fold (FIG. 8E) and 3.1-fold, respectively, in the LPS-induced group compared to the control group (FIG. 8F).

CC(C)(C)NC[C@H](O)c1ccc(O)c(CO)c1 [R-salbutamol, (R)-Salbutamol]
increase in airway resistant in response to methacholine (in words) (OVA induced asthma mice): significantly diminished
increase in airway resistance after treatment (OVA induced asthma mice; response to methacholine, OVA + Saline 445%): 180%
Percent of death after LPS challenges, 24 h (BALB/c mice [1]; 0.1 mg/kg + LPS): 20%
Percent of death after LPS challenges, 36 h (BALB/c mice [1]; 0.1 mg/kg + LPS): 20%
Percent of death after LPS challenges, 48 h (BALB/c mice [1]; 0.1 mg/kg + LPS): 40%
Percent of death after LPS challenges, 72 h (BALB/c mice [1]; 0.1 mg/kg + LPS): 40%
Percent of death after LPS challenges, 144 h (BALB/c mice [1]; 0.1 mg/kg + LPS): 40%
Percent of death after LPS challenges, 12 h (BALB/c mice [1]; 0.1 mg/kg i.p. 3 days + LPS 15 mg/kg): 0%
Percent of death after LPS challenges, 12 h (BALB/c mice [1]; 0.5 mg/kg + LPS): 0%
Percent of death after LPS challenges, 24 h (BALB/c mice [1]; 0.5 mg/kg + LPS): 0%
Percent of death after LPS challenges, 36 h (BALB/c mice [1]; 0.5 mg/kg + LPS): 0%
Percent of death after LPS challenges, 48 h (BALB/c mice [1]; 0.5 mg/kg + LPS): 0%
Percent of death after LPS challenges, 72 h (BALB/c mice [1]; 0.5 mg/kg + LPS): 0%
Percent of death after LPS challenges, 144 h (BALB/c mice [1]; 0.5 mg/kg + LPS): 0%
Percent of death, 12 h (BALB/c mice [1]; 0.5 mg/kg + saline (no LPS)): 0%
Percent of death, 24 h (BALB/c mice [1]; 0.5 mg/kg + saline (no LPS)): 0%
Percent of death, 36 h (BALB/c mice [1]; 0.5 mg/kg + saline (no LPS)): 0%
Percent of death, 48 h (BALB/c mice [1]; 0.5 mg/kg + saline (no LPS)): 0%
Percent of death, 72 h (BALB/c mice [1]; 0.5 mg/kg + saline (no LPS)): 0%
Percent of death, 144 h (BALB/c mice [1]; 0.5 mg/kg + saline (no LPS)): 0%
rate of mortality/death after LPS challenge (in words) (BALB/c mice [1]): survived
rate of mortality/death after LPS challenge (in words) (BALB/c mice [1]; listed as (R)-salbutamol): greatly reduced or even diminished
cell viability (RAW264.7 cells): no changes in cell viability
production/levels of ROS (in words) ([2]; LPS-induced cells): significantly decreased
decrease of the level of DCF (ROS) ([2]; pretreated before LPS, LPS increased 7.30-fold): 3.38 fold
deterioration of respiratory function induced by LPS (in words) (BALB/c mice [3]): restored
Tidal volume (BALB/c mice [3]; 0.1 mg/kg, LPS + saline 0.13 ± 0.03, Saline 0.22 ± 0.02): 0.17 ± 0.02 mL
Penh (BALB/c mice [3]; 0.1 mg/kg, LPS + saline 1.31 ± 0.40, Saline 0.54 ± 0.09): 0.68 ± 0.09
Tidal volume (BALB/c mice [3]; 0.5 mg/kg, LPS + saline 0.13 ± 0.03): 0.21 ± 0.02 mL
Penh (BALB/c mice [3]; 0.5 mg/kg, LPS + saline 1.31 ± 0.40): 0.53 ± 0.07
over production of inducible NO (iNO) and another ROS (NF-κB and MARK pathways; LPS sepsis): significantly prevent and inhibit
production or release of cytokines (cytokine storm) (NF-κB and MARK pathways; sepsis): significantly reduced
concentration of MCP-1 (ELISA) ([4]; LPS alone 1.588 ng/mL): 1.15 ng/mL
IL-1β (ELISA) ([4]; LPS alone 2.24-fold): 1.12 fold of control levels
TNF-α (ELISA) ([4]; LPS alone 2.62-fold): 0.75 fold of control levels
release and expression of cytokines in LPS induced M1 macrophages (in words) ([4]; LPS challenge): inhibited the expression of cytokines
mRNA level of TNF-α ([5]; LPS alone 2.26-fold of control): significantly decreased
mRNA level of MCP-1 ([5]; LPS alone 3.1-fold of control): significantly decreased
mRNA level of IL-1β ([5]; LPS alone 12.74-fold of control): significantly decreased
